According to ChEMBL document CHEMBL4814067, “An optimized analog of antimicrobial peptide Jelleine-1 shows enhanced antimicrobial activity against multidrug resistant P. aeruginosa and negligible toxicity in vitro and in vivo” (Eur J Med Chem, 2021):
The source made the active and inactive calls.

Legend:
Staphylococcus aureus [1] = assay: Bactericidal activity against Staphylococcus aureus assessed as killing effect at 2 times MIC measured at 60 mins by bacterial colony counting assay; type: functional; conditions: 1 h
Escherichia coli [2] = assay: Antibacterial activity against ESBL-producing Escherichia coli clinical isolate 1 assessed as transparent well by visual inspection after 18 hrs by CLSI based-broth microdilution method; type: functional
Bacillus subtilis = assay: Antibacterial activity against Bacillus subtilis ATCC 23857 assessed as transparent well by visual inspection after 18 hrs by CLSI based-broth microdilution method; type: functional
[3] = Toxicity in mouse assessed as effect on total albumin level at 10 to 30 mg/kg, ip measured after 8 days; type: organism-based; conditions: in vivo, 192 h, dose 10-30 mg/kg, time 8 day
Staphylococcus aureus [4] = assay: Antibacterial activity against methicillin resistant Staphylococcus aureus clinical isolate 2 assessed as transparent well by visual inspection after 18 hrs by CLSI based-broth microdilution method; type: functional
Staphylococcus aureus [5] = assay: Antibacterial activity against methicillin resistant Staphylococcus aureus clinical isolate 1 assessed as transparent well by visual inspection after 18 hrs by CLSI based-broth microdilution method; type: functional; conditions: C1
Enterobacter sp. = assay: Antibacterial activity against Enterobacter sakazakii ATCC 29544 assessed as transparent well by visual inspection after 18 hrs by CLSI based-broth microdilution method; type: functional
Escherichia coli [6] = assay: Antibacterial activity against ESBL-producing Escherichia coli clinical isolate 4 assessed as transparent well by visual inspection after 18 hrs by CLSI based-broth microdilution method; type: functional
[7] = tested on: Staphylococcus epidermidis; assay: Antibacterial activity against Staphylococcus epidermidis ATCC 12228 assessed as transparent well by visual inspection after 18 hrs by CLSI based-broth microdilution method; type: functional
Pseudomonas aeruginosa [8] = assay: Inhibition of biofilm formation in multidrug-resistant Pseudomonas aeruginosa at 64 uM measured after 24 hrs by crystal violet staining based assay; type: functional
Escherichia coli [9] = assay: Bactericidal activity against Escherichia coli assessed as killing effect at 2 times MIC measured at 60 mins by bacterial colony counting assay; type: functional; conditions: 1 h
Pseudomonas aeruginosa [10] = assay: Antibacterial activity against Pseudomonas aeruginosa ATCC 27853 assessed as transparent well by visual inspection after 18 hrs by CLSI based-broth microdilution method; type: functional
Escherichia coli [11] = assay: Antibacterial activity against Escherichia coli ATCC 25922 assessed as transparent well by visual inspection after 18 hrs by CLSI based-broth microdilution method; type: functional
RAW264.7 = assay: Cytotoxicity against mouse RAW264.7 assessed as reduction in cell viability measured after 24 hrs by MTT assay; type: cell-based; conditions: raw264.7, 24 h
[12] = Toxicity in mouse assessed as effect on body weight at 10 to 30 mg/kg, ip measured after 8 days; type: organism-based; conditions: in vivo, 192 h, dose 10-30 mg/kg, time 8 day
Staphylococcus aureus [13] = assay: Bactericidal activity against Staphylococcus aureus assessed as killing effect at 1 times MIC measured at 240 mins by bacterial colony counting assay; type: functional, organism-based
Pseudomonas aeruginosa [14] = assay: Antimicrobial activity against multidrug-resistant Pseudomonas aeruginosa infected in peritonitis sepsis mouse model assessed as increase in mouse survival rate at 10 mg/kg, ip measured after 3 days; type: functional, organism-based; conditions: time 3.0 day
Staphylococcus aureus [15] = assay: Antibacterial activity against methicillin resistant Staphylococcus aureus clinical isolate 3 assessed as transparent well by visual inspection after 18 hrs by CLSI based-broth microdilution method; type: functional
Pseudomonas aeruginosa [16] = assay: Antimicrobial activity against multidrug-resistant Pseudomonas aeruginosa infected in peritonitis sepsis mouse model assessed as increase in mouse survival rate at 30 mg/kg, ip measured after 7 days; type: functional, organism-based; conditions: time 7.0 day
Escherichia coli [17] = assay: Antibacterial activity against ESBL-producing Escherichia coli clinical isolate 5 assessed as transparent well by visual inspection after 18 hrs by CLSI based-broth microdilution method; type: functional
Escherichia coli [18] = assay: Antibacterial activity against ESBL-producing Escherichia coli clinical isolate 2 assessed as transparent well by visual inspection after 18 hrs by CLSI based-broth microdilution method; type: functional
Cell membrane [19] = assay: Induction of inner membrane permeabilization in Escherichia coli ML-35 assessed as increase in ONPG at 1 to 8 times of MIC measured 100 mins by multimode reader
Cell membrane [20] = assay: Induction of outer membrane permeabilization in Escherichia coli using NPN hydrophobic fluorescent probe at 1 to 8 times of MIC measured for 15 mins by multimode reader
Escherichia coli [21] = assay: Antibacterial activity against ESBL-producing Escherichia coli clinical isolate 3 assessed as transparent well by visual inspection after 18 hrs by CLSI based-broth microdilution method; type: functional
[22] = Toxicity in mouse assessed as effect on total protein level at 10 to 30 mg/kg, ip measured after 8 days; type: organism-based; conditions: in vivo, 192 h, dose 10-30 mg/kg, time 8 day
Staphylococcus aureus [23] = assay: Antibacterial activity against Staphylococcus aureus ATCC 29213 assessed as transparent well by visual inspection after 18 hrs by CLSI based-broth microdilution method; type: functional; conditions: C1 ATCC 29213
HeLa = assay: Cytotoxicity against human HeLa cells assessed as reduction in cell viability measured after 24 hrs by MTT assay; type: cell-based
[24] = Toxicity in mouse assessed as effect on alanine aminotransferase level at 10 to 30 mg/kg, ip measured after 8 days; type: organism-based; conditions: in vivo, 192 h, dose 10-30 mg/kg, time 8 day
[25] = Toxicity in mouse assessed as effect on aspartate transaminase level at 10 to 30 mg/kg, ip measured after 8 days; type: organism-based; conditions: in vivo, 192 h, dose 10-30 mg/kg, time 8 day
Pseudomonas aeruginosa [26] = assay: Antibacterial activity against Pseudomonas aeruginosa clinical isolate assessed as transparent well by visual inspection after 18 hrs by CLSI based-broth microdilution method; type: functional
Staphylococcus aureus [27] = assay: Antibacterial activity against methicillin resistant Staphylococcus aureus clinical isolate 4 assessed as transparent well by visual inspection after 18 hrs by CLSI based-broth microdilution method; type: functional
Erythrocyte = assay: Haemolytic activity in human erythrocytes by optical absorption assay; type: ADME, cell-based
Escherichia coli [28] = assay: Bactericidal activity against Escherichia coli assessed as killing effect at 1 times MIC measured at 120 mins by bacterial colony counting assay; type: functional, organism-based
NIH3T3 = assay: Cytotoxicity against mouse NIH/3T3 assessed as reduction in cell viability measured after 24 hrs by MTT assay; type: cell-based; conditions: nih3t3, 24 h

H-PWRLRLRL-OH
Non-Toxic: Activity [3] | Activity (RAW264.7) | Activity [12] | Activity [22] | Activity (HeLa) | Activity [24] | Activity [25] | Activity (Erythrocyte) | Activity (NIH3T3)
74.6%: inhibition at 64 µM (Pseudomonas aeruginosa [8])
32 µM: MIC (Staphylococcus aureus [4]) | MIC (Staphylococcus aureus [5]) | MIC (Staphylococcus aureus [15]) | MIC (Staphylococcus aureus [23]) | MIC (Staphylococcus aureus [27])
active: Activity (Staphylococcus aureus [13]) | Activity (Pseudomonas aeruginosa [16]) | Activity (Cell membrane [19]) | Activity (Cell membrane [20]) Dose-Dependent Effect | Activity (Escherichia coli [28])
4 µM: MIC (Escherichia coli [2]) | MIC (Bacillus subtilis) | MIC (Escherichia coli [6]) | MIC (Escherichia coli [11]) | MIC (Escherichia coli [17]) | MIC (Escherichia coli [18]) | MIC (Escherichia coli [21])
inactive: Activity (Pseudomonas aeruginosa [14])
100%: Activity (Staphylococcus aureus [1]) | Activity (Escherichia coli [9])
8 µM: MIC (Enterobacter sp.) | MIC [7] | MIC (Pseudomonas aeruginosa [10]) | MIC (Pseudomonas aeruginosa [26])
